According to paper PMC8868193 (Antibiotics, 2022):
Where two headings read alike, the source gives them in different places. Blank lines part the entries; values can stand above or below the compound they belong to. Non-standard residues stand in square brackets, D forms with d. Residues, ends and D or L forms follow the SMILES beside them. NMeA = CN[C@@H](C)C(=O)O

Tests used:
Candida albicans SC5314 = test: microbe, parasite or virus in culture; settings: for MIC: Candida albicans; for Anti-Fungal MICs: SC5314, pH 7
Protocol: Candida albicans SC5314 was used as a test strain for the antifungal and synergistic antifungal bioassay. Checkerboard assays were carried out as described previously. Overnight cultures were chosen to prepare the strain suspension with RPMI 1640 medium. RPMI 1640 was purchased from Invitrogen, and was used according to the manufacturer’s protocol, by supplementing 2% glucose, 3.45% MOS, then adjusting the pH to 7.0. Compounds were dissolved in DMSO. Final concentrations ranged from 0.002 to 2 μg/mL for rapamycin and 0.39 to 25 μg/mL for peptide-like compounds, respectively. Rapamycin was 2-fold diluted from 1 to 11 (column), while selected compounds were 2-fold diluted from A to G (row) of the 96-well microtiter plate. The fractional inhibitory concentration index (FICI) is defined as the sum of the MIC of each drug when used in combination divided by the MIC of the drug used alone. Synergism and antagonism were defined by FICI of ≤0.5 and >4, respectively.

[1] = set-up: method as in 3 sources, ref [9] = [9]; PMID 16839576; doi:10.1016/j.phytochem.2006.05.033; 9. Walton J.D. HC-toxin Phytochemistry 2006 67 1406 1413 10.1016/j.phytochem.2006.05.033 16839576 ||| ref [16] = [16]; PMID 35747077; doi:10.1039/D0RA09388B; 16. Lin X. Chai L. Zhu H.R. Zhou Y. Lin. H.W. Applying molecular networking for targeted isolation of depsipeptides RSC Adv. 2021 11 2774 10.1039/D0RA09388B PMC9134009 35747077 ||| ref [17] = [17]; PMID 32528927; doi:10.3389/fchem.2020.00397; 17. Sala G.D. Mangoni A. Costantino V. Teta R. Identification of the biosynthetic gene cluster of thermoactinoamides and discovery of new congeners by integrated genome mining and MS-Based molecular n; settings: literature, cited from earlier work
HDAC8 = biological target: T1, HDAC8 (Homo sapiens, UniProt Q9BY41); test: HDAC activity assay (HDAC8 Deacetylase Fluorometric (Human) Assay Kit); type: biochemical; settings: triplicate
T1 construct: purchased Abnova KA4444
T1 sequence (Q9BY41 1-377): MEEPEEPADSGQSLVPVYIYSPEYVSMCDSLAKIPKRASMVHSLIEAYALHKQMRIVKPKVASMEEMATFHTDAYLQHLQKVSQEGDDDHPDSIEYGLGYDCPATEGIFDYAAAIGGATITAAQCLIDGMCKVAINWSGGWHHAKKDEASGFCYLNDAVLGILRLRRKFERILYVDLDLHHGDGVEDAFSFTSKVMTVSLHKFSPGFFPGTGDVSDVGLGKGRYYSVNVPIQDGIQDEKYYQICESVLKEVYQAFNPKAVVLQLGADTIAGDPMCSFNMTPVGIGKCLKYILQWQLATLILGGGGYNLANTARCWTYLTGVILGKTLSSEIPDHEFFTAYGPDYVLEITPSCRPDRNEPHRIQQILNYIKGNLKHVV
Protocol: The HDAC activity of the compounds was measured using an HDAC8 Deacetylase Fluorometric (Human) Assay Kit (Cat KA4444, Abnova, Taipei, Taiwan) according to the manufacturer’s instructions. Fluorescence signal was detected with excitation at 360 nm and emission at 460 nm using a fluorescence microplate reader (Perkin-Elmer, Waltham, MA, USA). Experiments were performed in triplicate and data were analyzed using GraphPad Prism (version 6.0), Kd values were calculated by nonlinear curve fitting using a 1-site binding (hyperbola) model (Y = Bmax*X/(Kd + X).

[2] = literature; ref [10]; cited from earlier work
Excerpt: Fungal natural products play a prominent role in the development of pharmaceutical agents.

[3] = SC5314, pH 7, read-out: Anti-Fungal MICs

MIC (Candida albicans SC5314; [3]): 0.5 µM
MIC (Candida albicans SC5314; SC5314, pH 7, read-out: Synergistic Anti-Fungal MICs): 0.125 µM
Compound: C[C@@H]1[C@H](O)[C@@H](C)/C=C/C=C/C=C/C=C/C=C/C=C/C=C/[C@H](O[C@@H]2O[C@H](C)[C@@H](O)[C@H](N)[C@@H]2O)C[C@@H]2O[C@](O)(C[C@@H](O)C[C@@H](O)[C@H](O)CC[C@@H](O)C[C@@H](O)CC(=O)O[C@H]1C)C[C@H](O)[C@H]2C(=O)O [Amphotericin B, reference compound]

Compound: HC toxin
cytotoxic / antimitogenic activity (in words) ([1]; ref [9]): cytotoxic and antimitogenic activities

Compound: neoantimycin L
cytotoxicity (in words) ([1]; ref [16]): excellent cytotoxicity

Compound: CC[C@H](C)[C@@H]1NC(=O)[C@H](C(C)C)NC(=O)[C@@H](Cc2ccc(OC)cc2)NC(=O)[C@H](C)N(C)C1=O [Compound 1, cyclo-[L-N-Me-Ala-L-Ile-L-Val-D-O-Me-Tyr]] (cyclo(I[NMeA][dY](Me)V))
Anti-Fungal MICs (Candida albicans SC5314): >100 µM
IC50 (HDAC8; text: HDAC at the cell level, method: HDAC8 fluorometric kit, ex 360 nm / em 460 nm, read-out: HDAC inhibition IC50): ~70 µM

Compound: CC[C@H](C)[C@@H]1NC(=O)[C@H]([C@@H](C)O)NC(=O)[C@@H](Cc2ccc(OC)cc2)NC(=O)[C@H](C)N(C)C1=O [Compound 2, cyclo-[L-N-Me-Ala-L-Ile-L-Thr-D-O-Me-Tyr]] (cyclo([NMeA][dY](Me)TI))
Anti-Fungal MICs (Candida albicans SC5314): >100 µM
antifungal activity alone (in words) (Candida albicans SC5314; compound alone, C. albicans): no antifungal effects alone
Synergistic Anti-Fungal MICs (Candida albicans SC5314; with 0.008 μM rapamycin, C. albicans SC5314, checkerboard, RPMI 1640, pH 7.0, start concentration 25 μM, 90% growth inhibition): 6.25 µM
concentration of compound required with rapamycin for achieving 90% growth inhibition (checkerboard MIC) (Candida albicans SC5314; with 0.008 μM rapamycin, Candida albicans SC5314): 6.25 µM
HDAC inhibitory activity (in words) (HDAC8; HDAC8 fluorometric kit): weak HDAC (histone deacetylase) inhibitory activity

Compound: thermoactinoamide A
antiproliferative activity (in words) ([1]; ref [17]): moderate antiproliferative activity

Compound: apicidin
antiprotozoan activity (in words) [2]: antiprotozoan activities

MIC (Candida albicans SC5314; [3]): 0.5 µM
concentration of rapamycin required in combination for achieving 90% growth inhibition (checkerboard MIC) (Candida albicans SC5314; together with 6.25 μM of compounds 1 and 2, Candida albicans SC5314): 0.008 µM
Compound: CO[C@H]1C[C@@H]2CC[C@@H](C)[C@@](O)(O2)C(=O)C(=O)N2CCCC[C@H]2C(=O)O[C@H]([C@H](C)C[C@@H]2CC[C@@H](O)[C@H](OC)C2)CC(=O)[C@H](C)/C=C(\C)[C@@H](O)[C@@H](OC)C(=O)[C@H](C)C[C@H](C)/C=C/C=C/C=C/1C [Rapamycin, reference compound]
